Experimental data as given in patent US12398121B2 (Nuvation Bio Inc., priority 2018, dated 2025).

Tests used:
[1] = biological target: T1, DNA-PK (Homo sapiens, UniProt P78527); assay: DNA-PK inhibition (Reaction Biology HotSpot Kinase Assay, radioisotope filter binding); format: biochemical; conditions: 5 nM DNA-PK, 20 μM DNA-PKtide, 33P-ATP
T1 construct: purchased Invitrogen, Carlsbad, CA PR9107A

[2] = biological target: T2, AR in LNCaP cytosol (Homo sapiens, UniProt P10275, T878A); assay: AR binding assay (3H-methyltrienolone displacement)
T2 construct: endogenous in cells; host or cells: LNCaP cytosol
T2 sequence (P10275 1-920 T878A): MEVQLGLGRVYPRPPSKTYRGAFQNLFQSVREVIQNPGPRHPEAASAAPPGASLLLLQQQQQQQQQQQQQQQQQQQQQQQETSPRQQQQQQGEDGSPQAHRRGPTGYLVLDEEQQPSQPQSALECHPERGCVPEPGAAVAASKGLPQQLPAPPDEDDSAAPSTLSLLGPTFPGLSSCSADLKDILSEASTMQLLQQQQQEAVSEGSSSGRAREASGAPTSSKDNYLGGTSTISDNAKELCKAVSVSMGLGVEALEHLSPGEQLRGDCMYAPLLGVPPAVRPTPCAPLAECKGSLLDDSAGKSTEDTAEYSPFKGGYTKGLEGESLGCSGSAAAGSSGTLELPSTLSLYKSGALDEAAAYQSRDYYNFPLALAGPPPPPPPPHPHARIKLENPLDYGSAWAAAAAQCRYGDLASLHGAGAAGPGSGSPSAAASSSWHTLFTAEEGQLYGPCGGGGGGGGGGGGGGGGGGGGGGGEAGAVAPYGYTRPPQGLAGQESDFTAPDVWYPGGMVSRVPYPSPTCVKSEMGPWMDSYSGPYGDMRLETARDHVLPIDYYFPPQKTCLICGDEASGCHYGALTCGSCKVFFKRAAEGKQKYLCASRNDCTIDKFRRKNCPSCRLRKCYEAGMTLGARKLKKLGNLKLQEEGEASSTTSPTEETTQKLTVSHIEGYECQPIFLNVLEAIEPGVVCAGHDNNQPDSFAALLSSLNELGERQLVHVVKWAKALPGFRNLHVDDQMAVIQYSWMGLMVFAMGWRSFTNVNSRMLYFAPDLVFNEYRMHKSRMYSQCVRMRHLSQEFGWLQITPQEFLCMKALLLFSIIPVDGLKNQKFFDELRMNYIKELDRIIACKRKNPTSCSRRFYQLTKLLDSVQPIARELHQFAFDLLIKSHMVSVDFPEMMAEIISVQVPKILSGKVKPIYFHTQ
Description: The following methods are for evaluating the in vitro biology properties of the test articles. • a. RBC HotSpot Poly(ADP-ribose) Polymerases 1 (PARP1) and Poly(ADP-ribose) Polymerases 2 (PARP2) Assays: The assay principle is radioisotope-based filter binding assay where incorporation of radioisotope-labeled NAD^+ into the substrate captured on filter is detected after washout free NAD^+. Data were analyzed using Excel and GraphPad Prism software for IC50 curve fits. Each assay was conducted with PJ34 as a positive control. • i. PARP1 assay: Human recombinant PARP1 at a final concentration of 2.5 nM was combined with histone H4 (20 μM) and test articles at various concentrations in reaction buffer (50 mM Tris-HCL, pH 8.0, 50 mM NaCl, 10 mM MgCl2, 1 mM DTT, 1% DMSO, and 20 μg/mL activated DNA). The solution was inoculated for 20 min at room temperature and the reaction initiated by adding [adenylate-^32P]-Nicotinamide Adenine Dinucleotide, ^32P-NAD^+ at a final concentration of 10 μM. After incubation for 2 hour at room temperature, the reaction mixture was filtered and washed with 0.75% phosphoric acid for radioactivity detection. • ii. PARP2 assay: Human recombinant PARP2 at a final concentration of 2.5 nM was combined with histone H3 (20 μM) and test articles at various concentrations in reaction buffer (50 mM Tris-HCL, pH 8.0, 50 mM NaCl, 10 mM MgCl2, 1 mM DTT, 1% DMSO, and 20 μg/mL activated DNA). The solution was inoculated for 20 min at room temperature and the reaction was initiated by adding [adenylate-^32P]-Nicotinamide Adenine Dinucleotide, ^32P-NAD^+ at a final concentration of 10 μM. After incubation for 2 hour at room temperature, the reaction mixture was filtered and washed with 0.75% phosphoric acid for radioactivity detection. • b. AR binding assay: AR in LNCaP cytosol was used for determining the binding affinity of test articles and the reference compound—progesterone (Sigma, Cat: E2785, St. Louis, MO). IC50s were determined using 8 concentrations/compound. Cytosol was plated at 200 μg/well (100 μL) into a 96-well conical polypropylene plate (Agilent, Cat: 5042-1385, Santa Clara, CA) and mixed with 3 μL of test compound. After adding 100 μL of ^3H-methyltrienolone (PerkinElmer, Cat: NET590250UC, San Jose, CA), the plate was sealed and shaken at 300 rpm at 4° C. for 24 hours. Post incubation, 100 μL of radioligand adsorption buffer containing 10 mM Tris-HCl, pH 7.4; 1.5 mM EDTA; 1 mM DTT; 0.25% charcoal; 0.0025% dextran was added to individual well. Plate was shaken for 15 min at 4′C followed by centrifugation at 3000 rpm for 30 min at 4° C. 150 μL of supernatant was transferred into scint-tube (PerkinElmer, Cat: 6000192) and mixed with 2 mL of Ultima Gold Cocktail (PerkinElmer, Cat: 6013329). Radioactivity was counted using a TriCarb 2910 TR scintillation counter (PerkinElmer). Inhibition of the radioactivity by test articles were calculated using the equation below: % Inhibition=(1−(Assay well−Average_LC)/(Average_HC−Average_LC))×100%.
IC50 values were calculated and graphed using the model “log(inhibitor) vs. response—Variable slope” included in GraphPad Prism 5 (San Diego, CA). The Ki values were further calculated using the equation below where [L] was the radioligand concentration (1 nM) using in this study. Kd value was 0.332 nM. Ki=IC50/(1+[L]/Kd) c. AR transactivation: Human AR cloned into a CMV vector backbone was used for the transactivation study. HEK-293 cells were plated at 80,000 cells per well of a 24 well plate in DME+5% csFBS. Twenty four hours later, the cells were transfected using Lipofectamine (Invitrogen, Carlsbad, CA) with 0.25 μg GRE-LUC, 0.01 μg CMV-LUC (renilla luciferase) and 25 ng of the AR in OPTIMEM medium. The cells were treated 24 hrs after transfection with various ligands (10^−12 to 10^−5 M final concentrations) and luciferase assay were performed 48 hours after transfection. […]

Q: For `CCN1C(=O)CNc2ncc(-c3ccc(-c4ncn(CCCCCCNC(=O)c5ccc(N6C(=S)N(c7ccc(C#N)c(C(F)(F)F)c7)C(=O)C6(C)C)cc5F)n4)nc3C)nc21` [Compound 3.1, 4-(3-(4-cyano-3-(trifluoromethyl)phenyl)-5,5-dimethyl-4-oxo-2-thioxoimidazolidin-1-yl)-N-(6-(3-(5-(8-ethyl-7-oxo-5,6,7,8-tetrahydropyrazino[2,3-b]pyrazin-2-yl)-6-methylpyridin-2-yl)-1H-1,2,4-triazol-1-yl)hexyl)-2-fluorobenzamide], which IC50 [1] is on record?
A: > 10000 nM

Q: And the Ki [2]?
A: 21 nM

Q: How did the IC50 [1] turn out when `CCN1C(=O)CN(CCCCCCNC(=O)c2ccc(N3C(=S)N(c4ccc(C#N)c(C(F)(F)F)c4)C(=O)C3(C)C)cc2F)c2ncc(-c3ccc(-c4nc[nH]n4)nc3C)nc21` [Compound 3.2, 4-(3-(4-cyano-3-(trifluoromethyl)phenyl)-5,5-dimethyl-4-oxo-2-thioxoimidazolidin-1-yl)-N-(6-(4-ethyl-6-(2-methyl-6-(1H-1,2,4-triazol-3-yl)pyridin-3-yl)-3-oxo-3,4-dihydropyrazino[2,3-b]pyrazin-1(2H)-yl)hexyl)-2-fluorobenzamide] was run?
A: > 10000 nM

Q: What about the Ki [2] of the same compound?
A: 19 nM
